Data from ChEMBL document CHEMBL4330132, “5-Keto-3-cyano-2,4-diaminothiophenes as selective maternal embryonic leucine zipper kinase inhibitors” (Bioorg Med Chem Lett, 2019).

What was measured:
[1] = test system: Epidermal growth factor receptor (Homo sapiens), P00533 [T790M]; experiment: Binding affinity to human partial length EGFR T790M mutant (R669 to G1022 residues) expressed in mammalian expression system assessed as residual binding level at 1 uM by Kinomescan method relative to control
[2] = molecular target: Receptor-type tyrosine-protein kinase FLT3 (Homo sapiens) (UniProt P36888); experiment: Binding affinity to wild-type human partial length FLT3 (V592 to Y969 residues) expressed in bacterial expression system assessed as residual binding level at 1 uM by Kinomescan method relative to control
[3] = molecular target: Dual specificity mitogen-activated protein kinase kinase 3 (Homo sapiens) (UniProt P46734); experiment: Binding affinity to wild-type human full length MEK3 (M1 to S318 residues) expressed in mammalian expression system assessed as residual binding level at 1 uM by Kinomescan method relative to control
Dual specificity mitogen-activated protein kinase kinase 3 (Homo sapiens), sequence (P46734 whole entry, the tested form may be a part): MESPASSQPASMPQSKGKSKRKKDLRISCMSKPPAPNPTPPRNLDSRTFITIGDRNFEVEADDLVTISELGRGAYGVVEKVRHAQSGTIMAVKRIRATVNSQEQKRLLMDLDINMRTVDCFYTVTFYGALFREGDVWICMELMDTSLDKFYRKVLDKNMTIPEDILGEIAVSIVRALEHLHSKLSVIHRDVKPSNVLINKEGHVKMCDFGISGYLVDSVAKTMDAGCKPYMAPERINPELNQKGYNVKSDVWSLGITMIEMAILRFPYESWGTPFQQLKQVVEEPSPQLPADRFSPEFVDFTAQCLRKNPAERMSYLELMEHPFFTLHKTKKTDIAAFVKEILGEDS

[4] = test system: Tyrosine-protein kinase ABL1 (Homo sapiens), P00519 [M351T]; experiment: Binding affinity to human phosphorylated ABL1 M351T mutant (S229 to K512 residues) expressed in mammalian expression system assessed as residual binding level at 1 uM by Kinomescan method relative to control
[5] = molecular target: Cyclin-dependent kinase 14 (Homo sapiens) (UniProt O94921); experiment: Binding affinity to wild-type human full length PFTK1 (M1 to H451 residues) expressed in bacterial expression system assessed as residual binding level at 1 uM by Kinomescan method relative to control
[6] = molecular target: Serine/threonine-protein kinase DCLK1 (Homo sapiens) (UniProt O15075); experiment: Binding affinity to wild-type human partial length DCAMKL1 (L270 to A662 residues) expressed in mammalian expression system assessed as residual binding level at 1 uM by Kinomescan method relative to control
[7] = molecular target: Serine/threonine-protein kinase STK11 (Homo sapiens) (UniProt Q15831); experiment: Binding affinity to wild-type human full length LKB1 (M1 to Q433 residues) expressed in bacterial expression system assessed as residual binding level at 1 uM by Kinomescan method relative to control
[8] = molecular target: 3-phosphoinositide-dependent protein kinase 1 (Homo sapiens) (UniProt O15530); experiment: Binding affinity to wild-type human full length PDPK1 (M1 to Q556 residues) expressed in bacterial expression system assessed as residual binding level at 1 uM by Kinomescan method relative to control
[9] = molecular target: Serine/threonine-protein kinase mTOR (Homo sapiens) (UniProt P42345); experiment: Binding affinity to wild-type human partial length MTOR (L1382 to W2549 residues) expressed in mammalian expression system assessed as residual binding level at 1 uM by Kinomescan method relative to control
[10] = molecular target: Ephrin type-B receptor 3 (Homo sapiens) (UniProt P54753); experiment: Binding affinity to wild-type human partial length EPHB3 (Q599 to T928 residues) expressed in bacterial expression system assessed as residual binding level at 1 uM by Kinomescan method relative to control
Ephrin type-B receptor 3 (Homo sapiens), sequence (P54753 whole entry, the tested form may be a part): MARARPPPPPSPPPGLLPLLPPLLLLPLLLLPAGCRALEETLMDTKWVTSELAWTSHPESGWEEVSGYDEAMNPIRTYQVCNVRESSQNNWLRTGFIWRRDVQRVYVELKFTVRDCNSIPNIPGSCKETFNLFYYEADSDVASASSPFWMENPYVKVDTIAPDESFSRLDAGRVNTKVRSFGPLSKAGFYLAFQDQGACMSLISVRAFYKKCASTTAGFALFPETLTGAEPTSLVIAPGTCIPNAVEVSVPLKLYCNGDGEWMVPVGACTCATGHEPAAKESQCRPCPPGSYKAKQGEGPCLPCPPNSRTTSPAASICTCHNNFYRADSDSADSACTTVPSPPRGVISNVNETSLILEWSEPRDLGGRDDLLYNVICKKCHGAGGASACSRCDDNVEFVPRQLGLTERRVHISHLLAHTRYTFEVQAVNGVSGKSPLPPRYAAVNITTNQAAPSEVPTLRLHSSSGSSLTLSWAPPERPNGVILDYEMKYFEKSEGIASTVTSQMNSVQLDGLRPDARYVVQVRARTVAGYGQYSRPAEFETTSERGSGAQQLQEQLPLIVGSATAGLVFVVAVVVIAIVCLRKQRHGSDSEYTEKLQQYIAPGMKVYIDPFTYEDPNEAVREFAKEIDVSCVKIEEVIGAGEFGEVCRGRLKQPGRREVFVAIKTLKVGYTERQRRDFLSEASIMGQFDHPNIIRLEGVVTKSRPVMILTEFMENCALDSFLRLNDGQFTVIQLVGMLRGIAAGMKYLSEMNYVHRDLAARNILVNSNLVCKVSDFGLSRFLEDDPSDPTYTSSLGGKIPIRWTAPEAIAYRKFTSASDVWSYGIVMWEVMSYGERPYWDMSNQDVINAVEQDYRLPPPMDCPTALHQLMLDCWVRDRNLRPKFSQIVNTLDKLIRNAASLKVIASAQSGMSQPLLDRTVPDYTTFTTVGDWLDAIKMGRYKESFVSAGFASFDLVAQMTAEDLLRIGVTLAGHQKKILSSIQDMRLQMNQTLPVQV

[11] = test system: Mast/stem cell growth factor receptor Kit (Homo sapiens), P10721 [V559D,T670I]; experiment: Binding affinity to human partial length KIT V559D/T670I double mutant (Y545 to D952 residues) expressed in bacterial expression system assessed as residual binding level at 1 uM by Kinomescan method relative to control
[12] = molecular target: Activated CDC42 kinase 1 (Homo sapiens) (UniProt Q07912); experiment: Binding affinity to wild-type human partial length TNK2 (S159 to D474 residues) expressed in bacterial expression system assessed as residual binding level at 1 uM by Kinomescan method relative to control
[13] = molecular target: Serine/threonine-protein kinase DCLK2 (Homo sapiens) (UniProt Q8N568); experiment: Binding affinity to wild-type human partial length DCAMKL2 (K273 to V664 residues) expressed in bacterial expression system assessed as residual binding level at 1 uM by Kinomescan method relative to control
Serine/threonine-protein kinase DCLK2 (Homo sapiens), sequence (Q8N568 whole entry, the tested form may be a part): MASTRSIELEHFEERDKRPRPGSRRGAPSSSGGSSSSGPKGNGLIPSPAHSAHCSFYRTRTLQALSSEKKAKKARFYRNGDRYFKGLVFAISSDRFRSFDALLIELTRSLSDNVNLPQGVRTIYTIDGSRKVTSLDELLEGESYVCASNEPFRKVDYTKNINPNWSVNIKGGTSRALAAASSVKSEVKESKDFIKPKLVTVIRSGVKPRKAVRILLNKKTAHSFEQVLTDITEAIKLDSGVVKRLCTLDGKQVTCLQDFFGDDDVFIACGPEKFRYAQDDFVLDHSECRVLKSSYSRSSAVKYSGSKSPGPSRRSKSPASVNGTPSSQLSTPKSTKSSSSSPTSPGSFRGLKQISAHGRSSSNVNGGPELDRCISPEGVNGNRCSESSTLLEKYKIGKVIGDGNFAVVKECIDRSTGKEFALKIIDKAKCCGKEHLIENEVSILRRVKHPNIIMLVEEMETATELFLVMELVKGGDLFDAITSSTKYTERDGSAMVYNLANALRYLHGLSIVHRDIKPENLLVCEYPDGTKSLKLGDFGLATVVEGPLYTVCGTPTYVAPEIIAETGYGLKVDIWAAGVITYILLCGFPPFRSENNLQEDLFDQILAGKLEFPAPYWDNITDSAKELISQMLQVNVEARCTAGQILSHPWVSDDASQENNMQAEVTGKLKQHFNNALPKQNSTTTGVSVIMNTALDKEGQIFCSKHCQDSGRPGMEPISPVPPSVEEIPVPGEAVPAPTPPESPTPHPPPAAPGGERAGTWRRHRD

[14] = molecular target: Cyclin-dependent kinase 11A (Homo sapiens) (UniProt Q9UQ88); experiment: Binding affinity to wild-type human partial length CDC2L2 (D391 to K730 residues) expressed in bacterial expression system assessed as residual binding level at 1 uM by Kinomescan method relative to control
[15] = molecular target: SRSF protein kinase 3 (Homo sapiens) (UniProt Q9UPE1); experiment: Binding affinity to wild-type human partial length SRPK3 (P41 to P567 residues) expressed in bacterial expression system assessed as residual binding level at 1 uM by Kinomescan method relative to control
[16] = molecular target: Dual specificity mitogen-activated protein kinase kinase 4 (Homo sapiens) (UniProt P45985); experiment: Binding affinity to wild-type human partial length MEK4 (S84 to D399 residues) expressed in mammalian expression system assessed as residual binding level at 1 uM by Kinomescan method relative to control
Dual specificity mitogen-activated protein kinase kinase 4 (Homo sapiens), sequence (P45985 whole entry, the tested form may be a part): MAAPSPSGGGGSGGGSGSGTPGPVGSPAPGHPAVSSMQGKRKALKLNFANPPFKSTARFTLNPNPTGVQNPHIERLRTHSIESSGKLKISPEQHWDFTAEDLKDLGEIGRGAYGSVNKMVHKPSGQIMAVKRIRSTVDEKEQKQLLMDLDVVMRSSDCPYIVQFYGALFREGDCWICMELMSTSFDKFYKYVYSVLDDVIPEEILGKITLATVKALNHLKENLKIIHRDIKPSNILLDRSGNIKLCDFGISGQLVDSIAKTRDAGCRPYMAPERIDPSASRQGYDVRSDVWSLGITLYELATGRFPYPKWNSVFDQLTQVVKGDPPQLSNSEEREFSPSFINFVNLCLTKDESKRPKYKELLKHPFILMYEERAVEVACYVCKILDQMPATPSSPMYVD

[17] = molecular target: Phosphatidylinositol 4-phosphate 5-kinase type-1 gamma (Homo sapiens) (UniProt O60331); experiment: Binding affinity to wild-type human partial length PIP5K1C (M1 to T668 residues) expressed in mammalian expression system assessed as residual binding level at 1 uM by Kinomescan method relative to control
[18] = molecular target: Serine/threonine-protein kinase VRK2 (Homo sapiens) (UniProt Q86Y07); experiment: Binding affinity to wild-type human partial length VRK2 (M1 to T336 residues) expressed in mammalian expression system assessed as residual binding level at 1 uM by Kinomescan method relative to control
[19] = molecular target: Myosin light chain kinase family member 4 (Homo sapiens) (UniProt Q86YV6); experiment: Binding affinity to wild-type human partial length MYLK4 (V79 to S380 residues) expressed in bacterial expression system assessed as residual binding level at 1 uM by Kinomescan method relative to control
Myosin light chain kinase family member 4 (Homo sapiens), sequence (Q86YV6 whole entry, the tested form may be a part): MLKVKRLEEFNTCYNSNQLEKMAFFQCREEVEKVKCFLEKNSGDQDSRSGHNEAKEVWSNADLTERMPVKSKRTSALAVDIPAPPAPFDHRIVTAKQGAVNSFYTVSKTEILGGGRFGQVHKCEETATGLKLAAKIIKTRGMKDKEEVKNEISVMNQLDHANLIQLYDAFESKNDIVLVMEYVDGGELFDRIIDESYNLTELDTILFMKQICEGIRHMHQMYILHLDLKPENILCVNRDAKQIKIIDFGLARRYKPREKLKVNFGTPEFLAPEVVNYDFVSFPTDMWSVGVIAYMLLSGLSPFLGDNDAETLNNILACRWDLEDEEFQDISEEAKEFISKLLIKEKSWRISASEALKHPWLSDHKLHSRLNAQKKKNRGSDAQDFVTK

[20] = molecular target: Myosin light chain kinase 2, skeletal/cardiac muscle (Homo sapiens) (UniProt Q9H1R3); experiment: Binding affinity to wild-type human partial length MYLK2 (D258 to K570 residues) expressed in bacterial expression system assessed as residual binding level at 1 uM by Kinomescan method relative to control
Myosin light chain kinase 2, skeletal/cardiac muscle (Homo sapiens), sequence (Q9H1R3 whole entry, the tested form may be a part): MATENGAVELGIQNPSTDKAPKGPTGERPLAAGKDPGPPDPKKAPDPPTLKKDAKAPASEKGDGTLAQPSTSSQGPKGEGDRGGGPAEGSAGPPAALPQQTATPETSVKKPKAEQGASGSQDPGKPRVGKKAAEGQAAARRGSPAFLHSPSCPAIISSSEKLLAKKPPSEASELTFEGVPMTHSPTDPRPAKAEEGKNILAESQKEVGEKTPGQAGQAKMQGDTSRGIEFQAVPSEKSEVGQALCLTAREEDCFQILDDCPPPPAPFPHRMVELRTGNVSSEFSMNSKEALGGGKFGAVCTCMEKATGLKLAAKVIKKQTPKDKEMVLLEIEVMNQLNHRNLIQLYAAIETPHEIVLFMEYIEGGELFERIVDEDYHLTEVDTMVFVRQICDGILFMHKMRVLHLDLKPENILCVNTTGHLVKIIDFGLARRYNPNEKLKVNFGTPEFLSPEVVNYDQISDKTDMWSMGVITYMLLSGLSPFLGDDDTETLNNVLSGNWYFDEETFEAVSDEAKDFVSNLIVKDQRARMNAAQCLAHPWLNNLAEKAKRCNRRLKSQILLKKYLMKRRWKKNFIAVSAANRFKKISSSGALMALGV

[21] = molecular target: Interferon-induced, double-stranded RNA-activated protein kinase (Homo sapiens) (UniProt P19525); experiment: Binding affinity to wild-type human partial length PRKR (F247 to C551 residues) expressed in bacterial expression system assessed as residual binding level at 1 uM by Kinomescan method relative to control
[22] = molecular target: Ribosomal protein S6 kinase alpha-2 (Homo sapiens) (UniProt Q15349); experiment: Binding affinity to wild-type human partial length N-terminal RSK3 kinase domain 1 (M1 to Q385 residues) expressed in bacterial expression system assessed as residual binding level at 1 uM by Kinomescan method relative to control
Ribosomal protein S6 kinase alpha-2 (Homo sapiens), sequence (Q15349 whole entry, the tested form may be a part): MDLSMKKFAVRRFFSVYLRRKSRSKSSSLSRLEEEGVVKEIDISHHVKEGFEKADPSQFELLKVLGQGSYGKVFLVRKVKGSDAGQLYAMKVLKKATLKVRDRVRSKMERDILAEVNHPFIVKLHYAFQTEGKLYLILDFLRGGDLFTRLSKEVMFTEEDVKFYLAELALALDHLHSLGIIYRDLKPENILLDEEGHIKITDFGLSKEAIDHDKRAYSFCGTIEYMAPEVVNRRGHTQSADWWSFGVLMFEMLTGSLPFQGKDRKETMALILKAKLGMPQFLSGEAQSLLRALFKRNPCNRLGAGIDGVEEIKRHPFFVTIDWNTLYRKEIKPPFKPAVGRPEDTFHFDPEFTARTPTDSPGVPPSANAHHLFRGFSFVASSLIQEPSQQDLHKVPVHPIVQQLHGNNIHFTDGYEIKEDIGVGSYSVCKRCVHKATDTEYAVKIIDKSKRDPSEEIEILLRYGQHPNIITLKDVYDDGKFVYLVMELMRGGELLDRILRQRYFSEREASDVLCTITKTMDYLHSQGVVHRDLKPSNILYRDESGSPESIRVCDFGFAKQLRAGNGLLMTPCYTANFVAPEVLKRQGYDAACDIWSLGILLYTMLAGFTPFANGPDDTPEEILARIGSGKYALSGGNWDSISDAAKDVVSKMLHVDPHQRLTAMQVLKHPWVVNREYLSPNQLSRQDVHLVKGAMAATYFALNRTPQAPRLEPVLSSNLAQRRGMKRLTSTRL

[23] = molecular target: Cyclin-dependent kinase-like 1 (Homo sapiens) (UniProt Q00532); experiment: Binding affinity to wild-type human full length CDKL1 (M1 to I358 residues) expressed in mammalian expression system assessed as residual binding level at 1 uM by Kinomescan method relative to control
[24] = molecular target: Receptor-interacting serine/threonine-protein kinase 1 (Homo sapiens) (UniProt Q13546); experiment: Binding affinity to wild-type human partial length RIPK1 (M1 to K305 residues) expressed in bacterial expression system assessed as residual binding level at 1 uM by Kinomescan method relative to control
Receptor-interacting serine/threonine-protein kinase 1 (Homo sapiens), sequence (Q13546 whole entry, the tested form may be a part): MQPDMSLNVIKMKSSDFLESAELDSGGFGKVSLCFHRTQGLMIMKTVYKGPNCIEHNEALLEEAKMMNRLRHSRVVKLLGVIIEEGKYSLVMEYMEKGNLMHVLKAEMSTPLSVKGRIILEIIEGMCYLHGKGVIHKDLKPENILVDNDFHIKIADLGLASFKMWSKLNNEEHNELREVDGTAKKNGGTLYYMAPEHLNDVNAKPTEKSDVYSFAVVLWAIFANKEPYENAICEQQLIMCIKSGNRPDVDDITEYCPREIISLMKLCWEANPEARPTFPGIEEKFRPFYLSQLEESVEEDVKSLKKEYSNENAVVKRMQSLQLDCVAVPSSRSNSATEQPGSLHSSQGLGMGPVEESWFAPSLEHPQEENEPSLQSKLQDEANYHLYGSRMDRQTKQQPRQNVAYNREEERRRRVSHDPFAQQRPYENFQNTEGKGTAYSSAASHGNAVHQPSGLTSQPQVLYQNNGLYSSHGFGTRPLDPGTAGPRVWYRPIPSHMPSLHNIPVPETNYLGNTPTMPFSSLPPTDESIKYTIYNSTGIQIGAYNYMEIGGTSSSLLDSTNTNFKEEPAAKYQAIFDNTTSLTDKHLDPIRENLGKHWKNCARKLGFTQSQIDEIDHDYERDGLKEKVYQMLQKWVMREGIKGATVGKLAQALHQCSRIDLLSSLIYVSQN

Structure (SMILES): CC(C)Nc1sc(C(=O)c2ccc(Cl)s2)c(N)c1C#N
- Activity [1]: 66%
- Activity [2]: 93%
- Activity [3]: 100%
- Activity [4]: 100%
- Activity [5]: 93%
- Activity [6]: 100%
- Activity [7]: 89%
- Activity [8]: 84%
- Activity [9]: 100%
- Activity [10]: 94%
- Activity [11]: 87%
- Activity [12]: 60%
- Activity [13]: 100%
- Activity [14]: 100%
- Activity [15]: 96%
- Activity [16]: 82%
- Activity [17]: 86%
- Activity [18]: 100%
- Activity [19]: 96%
- Activity [20]: 81%
- Activity [21]: 68%
- Activity [22]: 54%
- Activity [23]: 100%
- Activity [24]: 100%
